Measurements reported in patent US20030225127A1, “Heterocyclic sulfonamide derivatives” (priority 2003, published 2003).

SMILES	melting point [°C]
CC(CNS(=O)(=O)C(C)C)c1ccc(-c2ccc3c(c2)CC(=O)N3)cc1 (centres unmarked) [Example 3, 5-[4-(1-methyl-2-{[(methylethyl)sulfonyl]amino}ethyl)phenyl]indolin-2-one]	170 to 171
CC(C)S(=O)(=O)NC[C@H](C)c1ccc(-c2ccc3c(c2)CC(=O)N3)cc1 [Example 4, 5-[4-((1R)-1-methyl-2-{[(methylethyl)sulfonyl]amino}ethyl)phenyl]indolin-2-one]	184 to 185
